Reference: the NIST ThermoML archive (doi:10.1016/j.jct.2012.11.027)
Numbers after ± are expanded uncertainties.

Columns and labels:
[1] = xn = mol fraction of the nth substance listed; conditions: 101 kPa, Liquid, Linear variable-path acoustic interferometer, x2 = 0
[2] = 101 kPa, Liquid, Linear variable-path acoustic interferometer

Row | Structure (SMILES) | speed of sound ([1]; 288.15 K) [m/s] | speed of sound ([1]; 293.15 K) [m/s] | speed of sound ([1]; 298.15 K) [m/s] | speed of sound ([1]; 303.15 K) [m/s] | speed of sound ([1]; 308.15 K) [m/s] | speed of sound ([1]; 313.15 K) [m/s] | speed of sound ([1]; 318.15 K) [m/s] | speed of sound ([2]; 288.15 K) [m/s] | speed of sound ([2]; 293.15 K) [m/s] | speed of sound ([2]; 298.15 K) [m/s] | speed of sound ([2]; 303.15 K) [m/s] | speed of sound ([2]; 308.15 K) [m/s] | speed of sound ([2]; 313.15 K) [m/s] | speed of sound ([2]; 318.15 K) [m/s]
1 | CCCCO [butan-1-ol] + C=CC(=O)OC | 1282.2 ± 1.9 | 1262.4 ± 1.9 | 1242.6 ± 1.8 | 1225.8 ± 1.8 | 1207.6 ± 1.8 | 1189.2 ± 1.8 | 1170 ± 1.8 | – | – | – | – | – | – | –
2 | CCCCCCO [hexan-1-ol] + C=CC(=O)OC | 1339.2 ± 1.9 | 1321.2 ± 1.9 | 1306.9 ± 1.9 | 1289.5 ± 1.9 | 1275.7 ± 1.9 | 1256.3 ± 1.9 | 1237.5 ± 1.8 | – | – | – | – | – | – | –
3 | CCCCCCCCO [octan-1-ol] | – | – | – | – | – | – | – | 1390.2 ± 2 | 1371.5 ± 2 | 1352.4 ± 2 | 1333.1 ± 2 | 1315.7 ± 2 | 1298.9 ± 1.9 | 1282.9 ± 1.9
4 | CCCCCCO [hexan-1-ol] | – | – | – | – | – | – | – | 1339.2 ± 1.9 | 1321.2 ± 1.9 | 1306.9 ± 1.9 | 1289.5 ± 1.9 | 1275.7 ± 1.9 | 1256.3 ± 1.9 | 1237.5 ± 1.8
5 | CCCCCCCCCCO [decan-1-ol] | – | – | – | – | – | – | – | 1410.6 ± 2 | 1393.6 ± 2 | 1377.3 ± 2 | 1359.8 ± 2 | 1345.7 ± 2 | 1326.7 ± 2 | 1312.1 ± 1.9
6 | CCCCCCCCCCO [decan-1-ol] + C=CC(=O)OC | 1410.6 ± 2 | 1393.6 ± 2 | 1377.3 ± 2 | 1359.8 ± 2 | 1345.7 ± 2 | 1326.7 ± 2 | 1312.1 ± 1.9 | – | – | – | – | – | – | –
7 | CCCCO [butan-1-ol] | – | – | – | – | – | – | – | 1282.2 ± 1.9 | 1262.4 ± 1.9 | 1242.6 ± 1.8 | 1225.8 ± 1.8 | 1207.6 ± 1.8 | 1189.2 ± 1.8 | 1170 ± 1.8
8 | C=CC(=O)OC [methyl propenoate] | – | – | – | – | – | – | – | 1226.6 ± 1.8 | 1204.6 ± 1.8 | 1183.6 ± 1.8 | 1162.2 ± 1.7 | 1139.1 ± 1.7 | 1117.8 ± 1.7 | 1095.7 ± 1.7
9 | CCCCCCCCO [octan-1-ol] + C=CC(=O)OC | 1390.2 ± 2 | 1371.5 ± 2 | 1352.4 ± 2 | 1333.1 ± 2 | 1315.7 ± 2 | 1298.9 ± 1.9 | 1282.9 ± 1.9 | – | – | – | – | – | – | –
